Patent US11173151B2, “Substituted triazole derivatives and uses thereof” (BAYER AKTIENGESELLSCHAFT, priority 2017, dated 2021)

Legend:
[1] = molecular target: T1, human V2 receptor (Homo sapiens, UniProt P30518); test: Cellular in vitro assay for determining vasopressin receptor activity, V2 receptor cell line (CHO, CRE-luciferase); type: cell-based; conditions: CHO cell line transfected with human V2 receptor; [Arg8]-vasopressin at EC50 concentration, 3 hours; read-out: IC50 hV2
T1 construct: expressed in transfected cells; host or cells: CHO K1 (ATCC) expressing firefly luciferase under a CRE-responsive promoter
T1 sequence (P30518 whole entry): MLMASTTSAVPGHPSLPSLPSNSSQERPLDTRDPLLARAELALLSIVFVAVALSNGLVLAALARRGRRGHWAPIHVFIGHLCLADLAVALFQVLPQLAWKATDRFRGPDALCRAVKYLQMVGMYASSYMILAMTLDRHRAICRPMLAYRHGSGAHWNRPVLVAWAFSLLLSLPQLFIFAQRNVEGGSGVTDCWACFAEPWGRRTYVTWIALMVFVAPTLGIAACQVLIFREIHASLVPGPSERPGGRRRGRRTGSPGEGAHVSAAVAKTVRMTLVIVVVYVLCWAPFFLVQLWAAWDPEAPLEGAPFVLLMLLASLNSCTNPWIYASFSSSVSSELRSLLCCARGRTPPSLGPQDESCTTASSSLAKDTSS

[2] = molecular target: T2, human V1a receptor (Homo sapiens, UniProt P37288); test: Cellular in vitro assay for determining vasopressin receptor activity, V1a receptor cell line (CHO, aequorin luminescence); type: cell-based; conditions: for IC50: CHO cell line transfected with human V1a receptor, [Arg]-vasopressin at EC50 concentration, read-out: IC50 hV1a; for ratio IC50 hV2/hV1a: selectivity ratio IC50 hV2 / IC50 hV1a
T2 construct: expressed in transfected cells; host or cells: CHO K1 (ATCC), also stably transfected with a modified aequorin
T2 sequence (P37288 whole entry): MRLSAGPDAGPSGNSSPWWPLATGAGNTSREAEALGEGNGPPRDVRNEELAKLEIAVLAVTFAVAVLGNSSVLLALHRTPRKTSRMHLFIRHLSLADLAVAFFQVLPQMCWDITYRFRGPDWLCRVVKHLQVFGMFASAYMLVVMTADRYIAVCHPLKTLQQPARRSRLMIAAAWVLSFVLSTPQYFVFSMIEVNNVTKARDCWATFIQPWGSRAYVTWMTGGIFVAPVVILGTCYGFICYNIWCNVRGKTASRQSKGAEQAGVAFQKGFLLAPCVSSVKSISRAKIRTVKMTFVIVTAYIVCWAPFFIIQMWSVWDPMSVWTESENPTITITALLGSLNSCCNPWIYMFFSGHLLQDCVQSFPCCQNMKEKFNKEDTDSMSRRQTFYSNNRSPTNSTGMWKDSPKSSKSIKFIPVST
Outline: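 Luminescence from reconstituted aequorin, reporting intracellular calcium release, was measured immediately after adding [Arg]-vasopressin at EC50 concentration to CHO K1 cells pretreated 10 minutes with graded compound concentrations. Inhibition gave IC50 values.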

SMILES | IC50 [1] [nM] | IC50 [2] [nM] | ratio IC50 hV2/hV1a [2]
CC[C@H](C)NC(=O)c1ccccc1-n1cnc(Cn2nc(-c3ccc(Cl)cc3)n(C[C@H](O)C(F)(F)F)c2=O)n1 [Example 346, N-[(2S)-Butan-2-yl]-2-[3-({3-(4-chlorophenyl)-5-oxo-4-[(2S)-3,3,3-trifluoro-2-hydroxypropyl]-4,5-dihydro-1H-1,2,4-triazol-1-yl}methyl)-1H-1,2,4-triazol-1-yl]benzamide] | 119 | 1.75 | 67.7
CC1CCN(C(=O)c2ccccc2-n2cnc(Cn3nc(-c4ccc(Cl)cc4)n(C[C@H](O)C(F)(F)F)c3=O)n2)CC1 [Example 347, 5-(4-Chlorophenyl)-2-[(1-{2-[(4-methylpiperidin-1-yl)carbonyl]phenyl}-1H-1,2,4-triazol-3-yl)methyl]-4-[(2S)-3,3,3-trifluoro-2-hydroxypropyl]-2,4-dihydro-3H-1,2,4-triazol-3-one] | 1060 | 7.55 | 141.1
O=C(c1ccccc1-n1cnc(Cn2nc(-c3ccc(Cl)cc3)n(C[C@H](O)C(F)(F)F)c2=O)n1)N1CCCC1 [Example 348, 5-(4-Chlorophenyl)-2-({1-[2-(pyrrolidin-1-ylcarbonyl)phenyl]-1H-1,2,4-triazol-3-yl}methyl)-4-[(2S)-3,3,3-trifluoro-2-hydroxypropyl]-2,4-dihydro-3H-1,2,4-triazol-3-one] | 970 | 3.85 | 251.9
CCN(C(=O)c1ccccc1-n1cnc(Cn2nc(-c3ccc(Cl)cc3)n(C[C@H](O)C(F)(F)F)c2=O)n1)C(C)C [Example 349, 2-[3-({3-(4-Chlorophenyl)-5-oxo-4-[(2S)-3,3,3-trifluoro-2-hydroxypropyl]-4,5-dihydro-1H-1,2,4-triazol-1-yl}methyl)-1H-1,2,4-triazol-1-yl]-N-ethyl-N-(propan-2-yl)benzamide] | 740 | 4.7 | 157.4
O=C(c1ccccc1-n1cnc(Cn2nc(-c3ccc(Cl)cc3)n(C[C@H](O)C(F)(F)F)c2=O)n1)N1CCCCCC1 [Example 350, 2-({1-[2-(Azepan-1-ylcarbonyl)phenyl]-1H-1,2,4-triazol-3-yl}methyl)-5-(4-chlorophenyl)-4-[(2S)-3,3,3-trifluoro-2-hydroxypropyl]-2,4-dihydro-3H-1,2,4-triazol-3-one] | 265 | 1.8 | 147.2
CC1CCCCN1C(=O)c1ccccc1-n1cnc(Cn2nc(-c3ccc(Cl)cc3)n(C[C@H](O)C(F)(F)F)c2=O)n1 (stereo partly drawn) [Example 352, 5-(4-Chlorophenyl)-2-{[1-(2-{[2-methylpiperidin-1-yl]carbonyl}phenyl)-1H-1,2,4-triazol-3-yl]methyl}-4-[(2S)-3,3,3-trifluoro-2-hydroxypropyl]-2,4-dihydro-3H-1,2,4-triazol-3-one] | 320 | 0.84 | 383.2
O=C(c1ccccc1-n1cnc(Cn2nc(-c3ccc(Cl)cc3)n(C[C@H](O)C(F)(F)F)c2=O)n1)N1CC=CCC1 [Example 353, 5-(4-Chlorophenyl)-2-({1-[2-(3,6-dihydropyridin-1(2H)-ylcarbonyl)phenyl]-1H-1,2,4-triazol-3-yl}methyl)-4-[(2S)-3,3,3-trifluoro-2-hydroxypropyl]-2,4-dihydro-3H-1,2,4-triazol-3-one] | 280 | 0.94 | 299.5
O=C(NC1CCCCC1)c1ccccc1-n1cnc(Cn2nc(-c3ccc(Cl)cc3)n(C[C@H](O)C(F)(F)F)c2=O)n1 [Example 354, 2-[3-({3-(4-Chlorophenyl)-5-oxo-4-[(2S)-3,3,3-trifluoro-2-hydroxypropyl]-4,5-dihydro-1H-1,2,4-triazol-1-yl}methyl)-1H-1,2,4-triazol-1-yl]-N-cyclohexylbenzamide] | 150 | 2.25 | 66.7
CC(C)CN(C)C(=O)c1ccccc1-n1cnc(Cn2nc(-c3ccc(Cl)cc3)n(C[C@H](O)C(F)(F)F)c2=O)n1 [Example 356, 2-[3-({3-(4-Chlorophenyl)-5-oxo-4-[(2S)-3,3,3-trifluoro-2-hydroxypropyl]-4,5-dihydro-1H-1,2,4-triazol-1-yl}methyl)-1H-1,2,4-triazol-1-yl]-N-methyl-N-(2-methylpropyl)benzamide] | 1890 | 2.45 | 771.4
CN1CCN(C(=O)c2ccccc2-n2cnc(Cn3nc(-c4ccc(Cl)cc4)n(C[C@H](O)C(F)(F)F)c3=O)n2)CC1 [Example 357, 5-(4-Chlorophenyl)-2-[(1-{2-[(4-methylpiperazin-1-yl)carbonyl]phenyl}-1H-1,2,4-triazol-3-yl)methyl]-4-[(2S)-3,3,3-trifluoro-2-hydroxypropyl]-2,4-dihydro-3H-1,2,4-triazol-3-one] | 2450 | 33 | 74.2
CCN1CCN(C(=O)c2ccccc2-n2cnc(Cn3nc(-c4ccc(Cl)cc4)n(C[C@H](O)C(F)(F)F)c3=O)n2)CC1 [Example 358, 5-(4-Chlorophenyl)-2-[(1-{2-[(4-ethylpiperazin-1-yl)carbonyl]phenyl}-1H-1,2,4-triazol-3-yl)methyl]-4-[(2S)-3,3,3-trifluoro-2-hydroxypropyl]-2,4-dihydro-3H-1,2,4-triazol-3-one] | 2750 | 18 | 152.8
O=C(c1ccccc1-n1cnc(Cn2nc(-c3ccc(Cl)cc3)n(C[C@H](O)C(F)(F)F)c2=O)n1)N1CCCCCCC1 [Example 359, 2-({1-[2-(Azocan-1-ylcarbonyl)phenyl]-1H-1,2,4-triazol-3-yl}methyl)-5-(4-chlorophenyl)-4-[(2S)-3,3,3-trifluoro-2-hydroxypropyl]-2,4-dihydro-3H-1,2,4-triazol-3-one] | 900 | 6.5 | 138.5
O=C(Nc1ccccc1)c1ccccc1-n1cnc(Cn2nc(-c3ccc(Cl)cc3)n(C[C@H](O)C(F)(F)F)c2=O)n1 [Example 360, 2-[3-({3-(4-Chlorophenyl)-5-oxo-4-[(2S)-3,3,3-trifluoro-2-hydroxypropyl]-4,5-dihydro-1H-1,2,4-triazol-1-yl}methyl)-1H-1,2,4-triazol-1-yl]-N-phenylbenzamide] | 14.9 | 0.74 | 20.1
Cc1cccc(NC(=O)c2ccccc2-n2cnc(Cn3nc(-c4ccc(Cl)cc4)n(C[C@H](O)C(F)(F)F)c3=O)n2)c1 [Example 361, 2-[3-({3-(4-Chlorophenyl)-5-oxo-4-[(2S)-3,3,3-trifluoro-2-hydroxypropyl]-4,5-dihydro-1H-1,2,4-triazol-1-yl}methyl)-1H-1,2,4-triazol-1-yl]-N-(3-methylphenyl)benzamide] | 97.5 | 2.55 | 38.2
CN(CCC#N)C(=O)c1ccccc1-n1cnc(Cn2nc(-c3ccc(Cl)cc3)n(C[C@H](O)C(F)(F)F)c2=O)n1 [Example 362, 2-[3-({3-(4-Chlorophenyl)-5-oxo-4-[(2S)-3,3,3-trifluoro-2-hydroxypropyl]-4,5-dihydro-1H-1,2,4-triazol-1-yl}methyl)-1H-1,2,4-triazol-1-yl]-N-(2-cyanoethyl)-N-methylbenzamide] | 2500 | 4.85 | 515.5
O=C(NCc1ccccc1F)c1ccccc1-n1cnc(Cn2nc(-c3ccc(Cl)cc3)n(C[C@H](O)C(F)(F)F)c2=O)n1 [Example 363, 2-[3-({3-(4-Chlorophenyl)-5-oxo-4-[(2S)-3,3,3-trifluoro-2-hydroxypropyl]-4,5-dihydro-1H-1,2,4-triazol-1-yl}methyl)-1H-1,2,4-triazol-1-yl]-N-(2-fluorobenzyl)benzamide] | 345 | 5.5 | 62.7
O=C(NCC(F)(F)F)c1cccc(Cl)c1-n1cnc(Cn2nc(-c3ccc(Cl)cc3)n(C[C@H](O)C(F)(F)F)c2=O)n1 [Example 365, 3-Chloro-2-[3-({3-(4-chlorophenyl)-5-oxo-4-[(2S)-3,3,3-trifluoro-2-hydroxypropyl]-4,5-dihydro-1H-1,2,4-triazol-1-yl}methyl)-1H-1,2,4-triazol-1-yl]-N-(2,2,2-trifluoroethyl)benzamide] | 920 | 30 | 30.7
O=C(NCC(F)(F)F)c1cccc(Cl)c1-n1cnc(Cn2nc(-c3ccc(Cl)cc3)n(C[C@@H](O)C(F)(F)F)c2=O)n1 [Example 366, 3-Chloro-2-[3-({3-(4-chlorophenyl)-5-oxo-4-[(2R)-3,3,3-trifluoro-2-hydroxypropyl]-4,5-dihydro-1H-1,2,4-triazol-1-yl}methyl)-1H-1,2,4-triazol-1-yl]-N-(2,2,2-trifluoroethyl)benzamide] | 3700 | 195 | 19.0
O=C(NC1CC1)c1cccc(Cl)c1-n1cnc(Cn2nc(-c3ccc(Cl)cc3)n(C[C@H](O)C(F)(F)F)c2=O)n1 [Example 369, 3-Chloro-2-[3-({3-(4-chlorophenyl)-5-oxo-4-[(2S)-3,3,3-trifluoro-2-hydroxypropyl]-4,5-dihydro-1H-1,2,4-triazol-1-yl}methyl)-1H-1,2,4-triazol-1-yl]-N-cyclopropylbenzamide] | 470 | 2.8 | 167.9
O=C(NCC1CC1)c1cccc(Cl)c1-n1cnc(Cn2nc(-c3ccc(Cl)cc3)n(C[C@H](O)C(F)(F)F)c2=O)n1 [Example 370, 3-Chloro-2-[3-({3-(4-chlorophenyl)-5-oxo-4-[(2S)-3,3,3-trifluoro-2-hydroxypropyl]-4,5-dihydro-1H-1,2,4-triazol-1-yl}methyl)-1H-1,2,4-triazol-1-yl]-N-(cyclopropylmethyl)benzamide] | 420 | 33 | 12.7
